Patent US20080242700A1, “Methods and Compositions for Selectin Inhibition” (Wyeth, priority 2007, published 2008)

Target: T1, P-selectin/PSGL-1 interaction (Homo sapiens, UniProt P16109)
T1 construct: comprised of the lectin and epidermal growth factor-like (EGF) domains expressed in CHO cells; made in house; host or cells: CHO cells (P-LE)
T1 sequence (P16109 42-198): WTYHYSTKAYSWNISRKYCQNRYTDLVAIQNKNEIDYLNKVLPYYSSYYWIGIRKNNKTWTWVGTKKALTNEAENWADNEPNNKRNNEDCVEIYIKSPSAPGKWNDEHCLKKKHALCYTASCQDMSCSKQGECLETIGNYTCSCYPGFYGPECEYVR
Assay: Biacore P-selectin/PSGL-1 inhibition assay (surface plasmon resonance)
Assay type: binding
Conditions: 250 uM test compound; 500 nM P.LE; immobilized biotinylated PSGL-1 19ek; 10% DMSO; pH 7.4; 25° C.
Method: Surface plasmon resonance assays were performed on a Biacore 3000 instrument (Biacore Inc. Piscataway, N.J.) at 25° C. at a flow rate of 30 μL/minute and each assay consisted of a 60-second equilibration, a 60-μL sample injection (kinject), and a 300-second dissociation.
A purified, monomeric, truncated form of human PSGL-1, “19ek”, that contained all the necessary P-selectin binding determinants (see Goetz, et al., J Cell Biol., 1997, 137: 509-519; and Sako, et al., Cell, 1995, 83: 323-331) was biotinylated via amine chemistry (Sulfo-NHS-LC-Biotin, Peirce) at a unique C-terminal lysine residue (see Somers, et al., Cell, 2000, 103: 467-479) and immobilized on a Biacore SA sensor chip (Biacore Inc.), using an HBS-EP buffer (Biacore Inc.), and the target 600-700 RU. The coated chip was re-equilibrated with an HBS-P buffer (Biacore Inc.) to which 1 mM CaCl2 and 1 mM MgCl2 (both from Fisher) were added to ensure sufficient calcium for the calcium-dependent interaction between the receptor and the ligand.
Test compounds were incubated for 1 hour in a 1.1× Biacore assay buffer. Each solution was centrifuged through a 0.2 μm filter, using a 96-well plate format (Millipore). Glycyrrhizin tri-sodium salt (TCl) was prepared as a positive control in parallel with the test compounds, in the same manner described above.
A soluble recombinant truncated form of human P-selectin, P-LE, comprised of the lectin and epidermal growth factor-like (EGF) domains expressed in CHO cells (see Somers, et al., Cell, 2000, 103: 467-479) was added to each filtered test compound solution. Final concentrations of reagents were 500 nM P.LE, 250 or 500 μM test compound (depending on structure) or 1 mM glycyrrhizin, 10% DMSO, and 1× Biacore buffer ([…], 150 mM NaCl, 1 mM CaCl2, and 1 mM MgCl2 (all reagents from Fisher)), with a pH of 7.4. Compounds active at 250 μM were titrated to further define activity. Test samples were supplied to the Biacore instrument in a 96-well plate.
The Biacore raw data file was exported as a text file to an Excel spreadsheet, where the buffer blanks bracketing the samples were averaged for each Biacore instrument flow cell (Fc), and subtracted from the averaged uninhibited P.LE samples and from all the other samples. The reference signal from Fc1 (uncoated) was then subtracted from its corresponding active (coated) signal for each injection, a process known as double referencing (see Myszka, J Mol. Recognit., 1999, 12(5): 279-284). The percent inhibition of binding was calculated by dividing the reference-subtracted inhibited signal by the reference-subtracted uninhibited signal, subtracting this value from 1, and multiplying the resulting value by 100. The replicate percent inhibition values were averaged and expressed as the mean±standard deviation. The inter-experiment standard deviation of calculated percent inhibitions in the Biacore assay was ±5.

Question: For Cc1ccc2c(C(=O)O)c(O)c(C3Cc4ccccc4C3)nc2c1C [Compound 3, 3-hydroxy-2-indan-2-yl-7,8-dimethyl-quinolin-4-carboxylicacid], which inhibition at 250 µM is on record?
Answer: 11%

Question: Which inhibition at 250 µM does the source give for CC(C)c1cccc2c(C(=O)O)c(O)c(C3Cc4ccccc4C3)nc12 [Compound 4, 3-hydroxy-2-indan-2-yl-8-isopropyl-quinolin-4-carboxylicacid] here?
Answer: 48%

Question: With O=C(O)c1c(O)c(C2Cc3ccccc32)nc2c(C(F)(F)F)cccc12 (stereo not drawn) [Compound 1, 2-(1,2-dihydrocyclobutabenzen-1-yl)-3-hydroxy-8-(trifluoro-methyl)quinoline-4-carboxylic acid] as the compound, how does the inhibition at 250 µM read?
Answer: 45%

Question: With O=C(O)c1c(O)c(C2Cc3ccccc3C2)nc2c(C(F)(F)F)cccc12 [Compound 5, 3-hydroxy-2-indan-2-yl-8-trifluoromethyl-quinoline-4-carboxylic acid] as the compound, how does the inhibition at 250 µM read?
Answer: 35%

Question: How did the inhibition at 250 µM turn out when Cc1ccc2c(C(=O)O)c(O)c(C3Cc4ccccc43)nc2c1C (stereo not drawn) [Compound 2, 2-(1,2-dihydrocyclobutabenzen-1-yl)-3-hydroxy-7,8-dimethyl-quinolin-4-carboxylic acid] was run?
Answer: 17%

Same assay, conditions: positive control in the Biacore assay

Question: With CC1(C)[C@@H](O[C@H]2O[C@H](C(=O)O)[C@@H](O)[C@H](O)[C@H]2O[C@@H]2O[C@H](C(=O)O)[C@@H](O)[C@H](O)[C@H]2O)CC[C@]2(C)[C@H]3C(=O)C=C4[C@@H]5C[C@@](C)(C(=O)O)CC[C@]5(C)CC[C@@]4(C)[C@]3(C)CC[C@@H]12 [Glycyrrhizin, reference compound] as the compound, how does the IC50 read?
Answer: 1 mM
